We go through eight molecules from patent publication US20150011566A1, “N-PHENYLPIPERAZINE DERIVATIVES THAT ARE ANTAGONISTS OF A1A, A1D ADRENOCEPTORS AND 5-HT1A RECEPTORS FOR THE TREATMENT OF BENIGN PROSTATE HYPERPLASIA, PHARMACEUTICAL COMPOSITIONS CONTAINING THE SAME” (UNIVERSIDADE FEDERAL DO RIO DE JANEIRO-UFRJ, priority 2012, published 2015).

Data set [1] is described as follows: Acute toxicity test in Swiss mice (body temperature, behaviour for 14 days). It counts as in vivo. Particulars: n=6; for T (° C.) Basal Measure: body temperature before treatment; for T (° C.) 30′ after LDT / T (° C.) 60′ after LDT: body temperature, 100 mg/kg ip. The procedure: Swiss mice (female, 25-30 g, 6 animals per condition) were treated with LDT via intraperitoneal with LTD's at a dose of […] and observed for 14 days in the behavioral framework according to described method (LORKE, D., Arch Toxicol, 54 (4): 275-87, 1983, modified). The temperature was measured by retal probe before and after 30 and 60 min of described treatment.

In data set [2] the target is D2-Like receptors (Rattus norvegicus, UniProt P61169). Description: D2-like receptors binding assay, [3H]-YM 09151-2 (rat striatal membranes). The conditions noted are these: Table 15; for Ki: Cheng-Prusoff. The method, then:
Briefly, organs were homogenized for 30 seconds three times in Fisatom in 50 mM Tris-HCl, MgCl2 8 mM, 5 mM EDTA (pH 7.4 at 4° C.) and then centrifuged at 48,000×gav (20 minutes 4° C.). The pellet was resuspended in 50 mM Tris-HCl, 8 mM MgCl2, 5 mM EDTA (pH 7.4 at 37° C.), incubated at 37° C. for 10 minutes and centrifuged twice more. The final pellet was resuspended in the same buffer at a concentration of 1.5 mL/g tissue.
Non-specific binding was measured in the presence of 30 μM sulpiride. Assays were performed in triplicate.
The radioactivity retained on the filters was then determined in a liquid scintillation counter (Packard Tri-Carb 1600 TR). For these receptors were also determined IC50 and Ki parameters.

For data set [3], the target named is T1, α1D adrenoceptors (Rattus norvegicus, UniProt P23944).
T1 construct: the rat thoracic aorta corresponds to a tissue expressing mainly α1D-adrenoceptors; from tissue; host or cells: rat thoracic aorta rings
T1 sequence (P23944 1-561): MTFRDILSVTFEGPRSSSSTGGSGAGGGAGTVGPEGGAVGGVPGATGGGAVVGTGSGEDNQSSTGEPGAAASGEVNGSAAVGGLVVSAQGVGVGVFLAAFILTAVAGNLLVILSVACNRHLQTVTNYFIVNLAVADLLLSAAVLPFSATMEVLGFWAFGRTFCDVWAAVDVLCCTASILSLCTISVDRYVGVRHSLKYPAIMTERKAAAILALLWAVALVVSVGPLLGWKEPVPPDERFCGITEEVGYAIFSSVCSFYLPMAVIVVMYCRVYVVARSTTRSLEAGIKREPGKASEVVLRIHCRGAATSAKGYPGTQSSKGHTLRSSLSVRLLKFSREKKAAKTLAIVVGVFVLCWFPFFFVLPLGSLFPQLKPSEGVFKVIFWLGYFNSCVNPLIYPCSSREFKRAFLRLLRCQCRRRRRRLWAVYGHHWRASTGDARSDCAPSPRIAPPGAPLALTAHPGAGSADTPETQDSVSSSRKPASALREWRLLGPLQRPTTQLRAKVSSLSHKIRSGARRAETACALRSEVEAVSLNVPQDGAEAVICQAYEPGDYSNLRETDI
Description: Phenylephrine-induced contraction inhibition in rat aorta (isometric contraction, Schild KB). It counts as cell-based. The conditions noted are these: ratio of EC50 in presence and absence of test substance, 2 nM.

D2-Like receptors, sequence (P61169 whole entry): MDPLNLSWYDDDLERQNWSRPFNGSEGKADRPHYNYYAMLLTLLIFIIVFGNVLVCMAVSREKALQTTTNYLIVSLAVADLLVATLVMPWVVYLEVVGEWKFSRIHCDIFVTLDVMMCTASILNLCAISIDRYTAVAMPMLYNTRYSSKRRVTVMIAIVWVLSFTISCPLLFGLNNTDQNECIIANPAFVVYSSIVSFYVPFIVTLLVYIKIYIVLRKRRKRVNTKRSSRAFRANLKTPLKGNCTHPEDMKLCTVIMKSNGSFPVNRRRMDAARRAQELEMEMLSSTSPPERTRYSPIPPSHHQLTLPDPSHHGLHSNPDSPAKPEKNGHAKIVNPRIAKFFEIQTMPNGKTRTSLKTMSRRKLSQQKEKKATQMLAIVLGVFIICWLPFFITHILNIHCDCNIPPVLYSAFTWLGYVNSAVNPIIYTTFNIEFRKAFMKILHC

Turning to `COc1cccc(CCN2CCN(c3ccccc3OC)CC2)c1` [LDT 3], in data set [1], the “T (° C.) Basal Measure” value came to 35.33 °C, the “T (° C.) 30′ after LDT” value is 35.50 °C and the “T (° C.) 60′ after LDT” value worked out at 35.50 °C.

As to `COc1ccc(CCN2CCN(c3ccccc3OC)CC2)cc1OC` [LDT 5], in data set [1], the “T (° C.) Basal Measure” value was 35.00 °C, the “T (° C.) 30′ after LDT” value turned out to be 35.50 °C and the “T (° C.) 60′ after LDT” value was 35.17 °C. The Ki in data set [2] stood at 100 nM.

As to `CCOc1ccccc1N1CCN(CCc2ccc3c(c2)OCO3)CC1` [LDT 8], in data set [1], the “T (° C.) Basal Measure” value amounted to 35.67 °C, the “T (° C.) 30′ after LDT” value came to 35.67 °C and the “T (° C.) 60′ after LDT” value stood at 35.50 °C.

Turning to `CCCCCN1CCN(c2ccccc2OC)CC1` [LDT 65], in data set [1], the “T (° C.) Basal Measure” value came to 37.17 °C, the “T (° C.) 30′ after LDT” value amounted to 37.17 °C and the “T (° C.) 60′ after LDT” value was 37.17 °C.

As for `CCCCCCN1CCN(c2ccccc2OC)CC1` [LDT 66], in data set [1], the “T (° C.) Basal Measure” value amounted to 37.00 °C, the “T (° C.) 30′ after LDT” value was 37.50 °C and the “T (° C.) 60′ after LDT” value was found to be 37.33 °C. In addition, in data set [2], the “-log IC50 (M)” value came out at 6.92 ± 0.11 M and affinity was put at a Ki of 40 nM.

As to `CCCCCCCN1CCN(c2ccccc2OC)CC1` [LDT 67], in data set [2], the “-log IC50 (M)” value amounted to 7.47 ± 0.07 M and the Ki was determined as 9 nM.

Take `CCCCCCCCN1CCN(c2ccccc2OC)CC1` [LDT 68]: in data set [2], the “-log IC50 (M)” value is listed as 7.49 ± 0.09 M and the inhibition constant (Ki) was 9 nM.

`CCOc1ccccc1N1CCN(CCc2ccc(OC)c(OC)c2)CC1` [LDT 245]: the “CR ± EPM” value in data set [3] amounted to 3.9 ± 1.0.
